Laboratory results reported in patent US9233961B2, “Compounds and compositions for the treatment of parasitic diseases” (Novartis AG, priority 2013, dated 2016).
Read-outs that look alike come from different tables or passages of the source.

Assays:
[1] = test system: Leishmania donovani axenic amastigote parasites; assay: Leishmania donovani axenic amastigote proliferation assay; assay type: cell-based
Protocol: Leishmania Donovani Axenic Amastigote Proliferation Assay
Leishmania donovani axenic amastigote parasites are grown at 37° C., 5% CO2 in media made of RPMI 1640, 4 mM L-glutamine, 20% heat inactivated FBS, 100 units/ml of penicillin and 100 μg/ml of streptomycin, 23 μM Folic Acid, 100 μM Adenosine, 22 mM D-glucose, 25 mM MES. The pH of media is adjusted to 5.5 at 37° C. using HCl. 20 μL of media is first dispensed into 384 well plates and 100 nL of the compounds of invention in DMSO are added to the plate wells. At the same time control compounds and DMSO are added to plates to serve as the positive and negative controls, respectively. 40 μL of parasite culture (9600 parasites) are then added to the plate wells. The plates are then placed into incubators. After 2 day incubation, 20 μL of Cell TiterGlo (Promega) is added to the plate wells. The luminescence signal of each well is measured using the Envision reader (Perkin Elmer). The percentage inhibition of 50%, EC50, is calculated for each of the compounds.

[2] = test system: L. donovani HU3 strain in mouse peritoneal macrophages; assay: Assay for proliferation of Leishmania parasites in mouse peritoneal macrophages; assay type: cell-based, Leishmania donovani; conditions: Leishmania donovani, Peritoneal macrophage
Description: Assay for Proliferation of Leishmania Parasites
The activity of a compound according to the present invention for inhibition of parasitemai can be assessed by the parasite proliferation assay. The assay measures the increase in the parasite number in the assayed plate well using a DNA intercalating dye, SYBR Green I® dye (INVITROGEN) to stain Leishmania cell nuclei. It is understood that the assays illustrate the invention without in any way limiting the scope of the invention.
L. donovani HU3 strain is propagated by infecting BALB/c mice through tail vein injection with 10^7 Leishmania parasites. Infected mice are allowed to develop infection during 9-11 weeks post-infection. During this time, the parasites accumulate in the infected mouse spleens to large numbers, and the infected mice serve as the source of parasites for the in vitro measurement of compound efficacies. To assay a compound for anti-leishmanial activity, peritoneal macrophages isolated from non-infected BALB/c mice are seeded into 384-well plates at density 2×10^4 macrophages per well in […] of medium (RPMI 1640, 10% […], 10 mM HEPES, 1 mM sodium pyruvate, 1% Pen/Strep). Subsequently, the seeded plates are placed into an incubator set to maintain 37° C. temperature and atmosphere with 5% CO2. The next day, Leishmania parasites are isolated from the spleens of mice infected for 9-11 weeks and 4×10^5 isolated parasites in […] of the above media are added to each plate well. Plates are then returned into incubators and infection is allowed to proceed for 24 hours. After the infection of macrophages is completed, […] of compounds of the invention in the above medium, which also contains 5% DMSO, are added to plate wells containing infected macrophages. At the same time control compounds (miltefosine and amphotericin B) and DMSO are added to plates to serve as the positive and negative controls, respectively. After the compound addition, the plates are returned into incubator and cells infected with parasites are cultured for 5 days. At the end of cultivation, […] of 8% paraformaldehyde is added to plate wells and incubated for 15 min at room temperature. Following the incubation, the paraformaldehyde from plate wells is aspirated, and […] of PBS containing 0.2% Triton X-100 is added to wells. After 15 min incubation, the solution is aspirated from wells again, and replaced with SybrGreen Dye solution in PBS (1:125,000 dilution). Infected cells are imaged with Evotec Opera high-content microscope, and the number of parasites in well is determined by counting parasite nuclei visualized by staining with SybrGreen dye. The percentage inhibition of 50%, EC50, is calculated for each compound.
The inhibitory efficacy of the compounds of the invention in delaying the proliferation of L. donovani in mouse peritoneal macrophages is provided in Table I, infra.

[3] = axenic amastigotes in vitro, read-out: L. donovani amastigotes EC50
[4] = read-out: L. donavani Macrophage EC50
[5] = read-out: L. donavani Macrophage EC50 (μM)

| SMILES | EC50 [1, 3] | EC50 [2, 4] | EC50 [2, 5] | EC50 ([1]; 48 h, L. donovani axenic amastigotes, 2 day incubation, Cell TiterGlo luminescence, read-out: EC50) |
| --- | --- | --- | --- | --- |
| CN(C)Cc1ccc(C(=O)Nc2ccc(Cl)c(-c3nc4ncc(Br)cc4[nH]3)c2)o1 [Example 372, N-(3-{6-bromo-1H-imidazo[4,5-b]pyridin-2-yl}-4-chlorophenyl)-5-[(dimethylamino)methyl]furan-2-carboxamide] | > 25 µM | 2.52 µM |  |  |
| COc1ncc(-c2cnc3nc(-c4cc(NC(=O)c5ccco5)ccc4Cl)[nH]c3c2)cn1 [Compound 9] | 0.45 µM | 1.2 µM |  |  |
| O=C(Nc1cccc(-c2nc3ncc(-c4ccc(OC(F)(F)F)cc4)cc3[nH]2)c1)c1ccco1 [Compound 41] | 5.9 µM | 2.2 µM |  |  |
| Cc1cnc2nc(-c3cc(NC(=O)c4nc(C)oc4C(F)(F)F)ccc3Cl)[nH]c2c1 [Compound 176] | > 25 µM | > 50 µM |  |  |
| Nc1ccccc1-c1cnc2nc(-c3cc(NC(=O)c4ccco4)ccc3Cl)[nH]c2c1 [Compound 23] | 0.32 µM | 0.37 µM |  |  |
| NC(=O)Nc1ccc(-c2cnc3nc(-c4cc(NC(=O)c5ccco5)ccc4Cl)[nH]c3c2)cc1 [Compound 32] | > 25 µM | 15.3 µM |  |  |
| Cc1cnc2nc(-c3cc(NC(=O)c4occc4C)ccc3Cl)[nH]c2c1 [Compound 130] | 2.01 µM | 15.7 µM |  |  |
| O=C(Nc1ccc(Cl)c(-c2nc3ncc(Br)cc3n2CCN2CCOCC2)c1)N1CCCC1 [Compound 388] | > 25 µM | > 50 µM |  |  |
| Cc1cnc2nc(-c3cc(NC(=O)[C@H]4C[C@@H](O)CN4)ccc3F)[nH]c2c1 [Compound 271] | > 25 µM | > 50 µM |  |  |
| CC(C)OC(=O)Nc1ccc(Cl)c(-c2nc3ncc(-c4ccc(NC(=O)CN)cc4)cc3[nH]2)c1 [Compound 338] | 2.4 µM | 0.42 µM |  |  |
| CC(=O)Nc1ccc(-c2cnc3nc(-c4cc(NC(=O)Nc5ccc(C(F)(F)F)cc5)ccc4F)oc3c2)cc1 [Compound 401] | 4.7 µM | 3.12 µM |  |  |
| COC(=O)Nc1ccc(-c2cnc3nc(-c4cc(NC(=O)Nc5ccc(C(F)(F)F)cc5)ccc4F)oc3c2)cc1 [Compound 402] | > 24 µM | 10 µM |  |  |
| Cc1cnc2nc(-c3cc(NC(=O)c4ccc(OCCN(C)C)cc4)ccc3F)[nH]c2c1 [Compound 269] | > 25 µM | > 50 µM |  |  |
| CN1CCN(CCOc2ccc(-c3cnc4nc(-c5cc(NC(=O)N6CCCC6)ccc5F)[nH]c4c3)cc2)CC1 [Compound 311] | > 25 µM | > 6.9 µM |  |  |
| Cc1cnc2nc(-c3cc(NC(=O)N4CC[C@H](F)C4)ccc3Cl)[nH]c2c1 [Compound 235] | 3.5 µM | 8.8 µM |  |  |
| Nc1ccc(-c2cnc3nc(-c4cc(NC(=O)Nc5ccc(C(F)(F)F)cc5)ccc4F)oc3c2)cn1 [Compound 400] | 1.62 µM | 4 µM |  |  |
| Cc1cnc2nc(-c3cc(NC(=O)c4ccnnc4)ccc3Cl)[nH]c2c1 [Compound 92] | > 20 µM | > 50 µM |  |  |
| CC(=O)Nc1ccccc1-c1cnc2nc(-c3cc(NC(=O)c4ccco4)ccc3Cl)[nH]c2c1 [Compound 8] | 0.75 µM | 1.72 µM |  |  |
| CCOc1cc(C(=O)Nc2ccc(Cl)c(-c3nc4ncc(C)cc4[nH]3)c2)ccn1 [Compound 93] | > 25 µM | > 35.5 µM |  |  |
| CC(C)OC(=O)Nc1ccc(Cl)c(-c2nc3ncc(-c4ccccc4NC(=O)OC(C)C)cc3n2C(=O)OC(C)C)c1 [Compound 336] | 1.89 µM | 2.18 µM |  |  |
| Nc1ncc(-c2cnc3nc(-c4cc(NC(=O)c5ccco5)ccc4Cl)[nH]c3c2)cn1 [Compound 17] | 0.48 µM | 1.57 µM |  |  |

| SMILES | EC50 [1, 3] | EC50 [2, 4] | EC50 [2, 5] | EC50 ([1]; 48 h, L. donovani axenic amastigotes, 2 day incubation, Cell TiterGlo luminescence, read-out: EC50) |
| --- | --- | --- | --- | --- |
| Cc1cnc2nc(-c3cc(NC(=O)c4ccns4)ccc3Cl)[nH]c2c1 [Compound 91] | 3.2 µM | 5.6 µM |  |  |
| Cc1cnc2nc(-c3cc(NC(=O)c4ccco4)ccc3Cl)[nH]c2c1 [Example 1, N-(4-chloro-3-{6-methyl-1H-imidazo[4,5-b]pyridin-2-yl}phenyl)furan-2-carboxamide] | 2.2 µM | 9 µM |  |  |
| O=C(Nc1ccc(Cl)c(-c2nc3ncc(-c4c[nH]cn4)cc3[nH]2)c1)N1CCCC1 [Compound 307] | > 25 µM | > 50 µM |  |  |
| Cc1cncc(C(=O)Nc2ccc(Cl)c(-c3nc4ncc(C)cc4[nH]3)c2)c1 [Compound 102] | 16.1 µM | 11.7 µM |  |  |
| O=C(Nc1ccc(Cl)c(-c2nc3ncc(-c4ccccc4)cc3o2)c1)c1ccco1 [Example 416, N-(4-chloro-3-{6-phenyl-[1,3]oxazolo[4,5-b]pyridin-2-yl}phenyl)-furan-2-carboxamide] | 1.52 µM |  | 2.9 µM |  |
| COC(=O)Nc1ccc(-c2cnc3nc(-c4cc(NC(=O)OC(C)C)ccc4Cl)[nH]c3c2)cc1 [Compound 341, methyl N-{4-[2-(2-chloro-5-{[(propan-2-yloxy)carbonyl]amino}phenyl)-1H-imidazo[4,5-b]pyridin-6-yl]phenyl}carbamate] | 0.08 µM | 0.23 µM |  | ~0.08 µM |
| Cc1cnc2nc(-c3cc(NC(=O)CCN)ccc3F)[nH]c2c1 [Compound 268] | > 25 µM | > 50 µM |  |  |
| CNc1ccc(F)c(-c2nc3ncc(-c4ccc(OCCN5CCOCC5)cc4)cc3o2)c1 [Example 421, 4-Fluoro-N-methyl-3-(6-{4-[2-(morpholin-4-yl)ethoxy]phenyl}-[1,3]oxazolo[4,5-b]pyridin-2-yl)aniline] | > 25 µM |  | > 50 µM |  |
| [2H]C([2H])([2H])C([2H])([2H])OC(=O)Nc1ccc(Cl)c(-c2nc3ncc(C)cc3[nH]2)c1 [Compound 215] | 13.3 µM | 18.1 µM |  |  |
| O=C(Nc1ccc(Cl)c(-c2nc3ncc(-c4ccc5c(c4)OCO5)cc3[nH]2)c1)c1ccco1 [Compound 27] | 2.66 µM | 24.4 µM |  |  |
| COC(=O)Nc1ccc(Cl)c(-c2nc3ncc(C#N)cc3[nH]2)c1 [Compound 290] | 15.6 µM | 17.4 µM |  |  |
| Cc1cnc2nc(-c3cc(NC(=O)c4cncc(C#N)c4)ccc3Cl)[nH]c2c1 [Compound 101] | 13.5 µM | > 50 µM |  |  |
| O=C(Nc1ccc(Cl)c(-c2nc3ncc(-c4ccsc4)cc3[nH]2)c1)N1CCCC1 [Compound 300] | 0.143 µM | 0.289 µM |  |  |
| CC(C)OC(=O)Nc1ccc(-c2cnc3nc(-c4cc(NC(=O)c5ccco5)ccc4Cl)[nH]c3c2)cc1 [Compound 31] | 0.177 µM | 0.45 µM |  |  |
| CC(C)N(C(=O)Nc1ccc(F)c(-c2nc3ncc(Br)cc3[nH]2)c1)C(C)C [Compound 362] | > 25 µM | 7.5 µM |  |  |
| Cc1cnc2nc(-c3cc(NC(=O)Cc4cc(C)no4)ccc3Cl)[nH]c2c1 [Compound 88] | > 25 µM | > 50 µM |  |  |
| O=C(Nc1ccc(C(F)(F)F)cc1)Nc1ccc(F)c(-c2nc3ncc(-c4ccc(N5CCCCC5)cc4)cc3o2)c1 [Compound 399] | 15.8 µM | 5.9 µM |  |  |
| COC(=O)Nc1ccc(-c2cnc3nc(-c4cc(NC(=O)N5CCC5)ccc4Cl)[nH]c3c2)cc1 [Compound 344] | 7.6 µM | 17 µM |  |  |
| CC(=O)Nc1ccc(F)c(-c2nc3ncc(C)cc3[nH]2)c1 [Compound 272] | > 25 µM | > 50 µM |  |  |
| CC(C)OC(=O)Nc1ccc(Cl)c(-c2nc3ncc(-c4ccccc4)cc3[nH]2)c1 [Example 333, Propan-2-yl N-(4-chloro-3-{6-phenyl-1H-imidazo[4,5-b]pyridin-2-yl}phenyl)carbamate] | 0.66 µM | 0.048 µM |  |  |
| O=C1NC(=O)C(c2ccc(-c3cnc4nc(-c5cc(NC(=O)c6ccco6)ccc5Cl)[nH]c4c3)cc2)N1 (stereo not shown) [Compound 42] | 1.39 µM | 4 µM |  |  |
